Assay results as given in ChEMBL document CHEMBL2346546, “Hit identification of novel heparanase inhibitors by structure- and ligand-based approaches” (Bioorg Med Chem, 2013).
Active and inactive are the calls of the source. The calls are words filed in the database; no cut-off is given here.

What was measured:
Heparanase [1] = target: T1, Heparanase (Homo sapiens, UniProt Q9Y251); assay: Binding affinity to recombinant heparanase catalytic stie (unknown origin) expressed in Escherichia coli BL21 (DE3) by surface plasmon resonance assay
T1 sequence (Q9Y251 whole entry): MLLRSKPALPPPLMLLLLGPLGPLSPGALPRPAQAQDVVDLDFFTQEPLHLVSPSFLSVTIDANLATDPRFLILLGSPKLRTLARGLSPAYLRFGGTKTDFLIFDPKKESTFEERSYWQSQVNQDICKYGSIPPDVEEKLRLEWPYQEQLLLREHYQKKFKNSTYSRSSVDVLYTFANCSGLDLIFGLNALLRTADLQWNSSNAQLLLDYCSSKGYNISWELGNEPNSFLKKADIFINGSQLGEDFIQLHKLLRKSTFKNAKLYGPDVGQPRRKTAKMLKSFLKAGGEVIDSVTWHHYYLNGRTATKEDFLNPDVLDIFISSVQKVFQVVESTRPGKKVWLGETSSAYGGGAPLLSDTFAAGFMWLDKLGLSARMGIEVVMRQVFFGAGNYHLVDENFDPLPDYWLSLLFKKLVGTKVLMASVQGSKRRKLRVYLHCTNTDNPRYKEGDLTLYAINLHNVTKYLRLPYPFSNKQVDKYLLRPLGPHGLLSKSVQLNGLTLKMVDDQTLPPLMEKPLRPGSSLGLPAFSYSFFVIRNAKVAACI

[2] = target: T2, Heparanase (Homo sapiens) (UniProt Q9Y251); assay: Binding affinity to recombinant heparanase catalytic stie (unknown origin) expressed in Escherichia coli BL21 (DE3) by NMR analysis
T2 sequence (whole entry): T1 sequence (Q9Y251 whole entry)

Heparanase [3] = target: T1, Heparanase; assay: Inhibition of recombinant heparanase catalytic stie (unknown origin) expressed in Escherichia coli BL21 (DE3)

Row | SMILES | Kd (Heparanase [1]) [µM] | Activity [2] | IC50 (Heparanase [3]) [µM]
1 | Clc1ccc2c(Nc3ccc(-c4ccco4)c(CN4CCCC4)c3)ccnc2c1 | > 1000 | – | –
2 | CN(C)CCCNC(=O)c1cc(NC(=O)CN2CCCCC2)cc(Nc2ccnc3cc(Cl)ccc23)c1 | > 1000 | – | –
3 | CCN(CC)Cc1cc(Nc2ccnc3cc(Cl)ccc23)ccc1Br | > 1000 | – | –
4 | CCN(CC)Cc1cc(Nc2ccnc3cc(Cl)ccc23)ccc1O | 52.6 | Active | –
5 | CCCCCCCCCCCCCCCc1cc(O[C@@H]2OC(C(=O)O)[C@H](O)[C@H](O)C2O)cc(O)c1C(=O)Oc1cc(C)c(C(=O)O)c(O)c1 (stereo partly specified) | – | – | 10
6 | CN(C)CCNCc1cc(NC(=O)CN2CCCCC2)cc(Nc2ccnc3cc(Cl)ccc23)c1 | 639 | – | –
7 | CCCCCCCCCCCCCCCC(=O)C1=C(O)[C@@H](CO)OC1=O | – | – | 17
8 | CCN(CC)Cc1cc(Nc2ccnc3cc(Cl)ccc23)ccc1N1CCOCC1 | 239 | – | –
9 | O=C(CN1CCCCC1)Nc1cc(CN2CCC(O)CC2)cc(Nc2ccnc3cc(Cl)ccc23)c1 | 1000 | – | –
10 | O=C(CN1CCCCC1)Nc1cc(Nc2ccnc3cc(Cl)ccc23)cc(C(=O)N2CCOCC2)c1 | > 1000 | – | –
11 | O=C(O)c1ccccc1C(=O)c1ccc(Oc2ccccc2)c([N+](=O)[O-])c1 | – | – | 1
12 | COc1ccc([C@@H]2CC(=O)c3c(O)cc(O[C@@H]4O[C@H](CO[C@@H]5O[C@@H](C)[C@H](O)[C@@H](O)[C@H]5O)[C@@H](O)[C@H](O)[C@H]4O)cc3O2)cc1O [HESPERIDIN] | > 1000 | Active | –
13 | CC(CCc1ccccc1)NCC(O)c1ccc(O)c(C(N)=O)c1 (stereo unspecified) [LABETALOL] | 1000 | Active | –
14 | CCOc1ccc(Nc2ccnc3cc(Cl)ccc23)cc1CN1CCCC1 | 169 | – | –
15 | COc1cc(N)c(Cl)cc1C(=O)NC1CCN(CCCOc2ccc(F)cc2)CC1OC (stereo unspecified) [CISAPRIDE] | > 1000 | Active | –
16 | CCCCCCCCCCCCCCCC(=O)C1=C(OC)[C@@H](CO)OC1=O | – | – | > 100
17 | C[C@@H]1O[C@@H](O[C@H]2[C@H](Oc3cc(O)c4c(c3)O[C@H](c3ccc(O)cc3)CC4=O)O[C@H](CO)[C@@H](O)[C@@H]2O)[C@H](O)[C@H](O)[C@H]1O [NARINGIN] | > 1000 | Active | –
18 | COc1ccc(CCN2CCC(Nc3nc4ccccc4n3Cc3ccc(F)cc3)CC2)cc1 [ASTEMIZOLE] | > 1000 | Active | –
19 | CN1C[C@H](CNC(=O)OCc2ccccc2)C[C@@H]2c3cccc4c3c(cn4C)C[C@H]21 [METERGOLINE] | > 1000 | Active | –
